Drawing on patent USRE43327E1, “Hydrophobic polyamine analogs and methods for their use” (Aminex Therapeutics, Inc., priority 2001, dated 2012), this text covers IC50 and EC50 for 16 molecules.

Molecules are shown by their SMILES. Where two headings read alike, the source gives them in different places.

Common to all, as to format: cell-based
One test concerns PC-3. Briefly: Growth inhibition assay, PA alone, PC-3. The conditions noted are these: Homo sapiens, PC-3, 144 h, PA alone (no DFMO), six days; repeat determinations; read-out: Cell Line IC50 PC-3. On the procedure: (§1) Medias were obtained from Mediatech, Inc. (Herdon, Va.) and serums from Gibco BRL (Gaithersburg, Md.). 50 U/ml penicillin, 50 μg/ml streptomycin and 2 mM L-glutamine (all from Bio Whittaker, Walkersville, Md.) were included in all cultures. […] When cells were cultured with polyamines or ORI compounds, 1 mM aminoguanidine (AG; Sigma) was included to inhibit serum amine oxidase activity.

Test [1] concerns 4 cell lines (A375, MDA-MB-231, PC-3, SK-OV-3). The test can be described thus: Growth inhibition with DFMO, average over 4 cell lines. The conditions noted are these: with DFMO.
Protocol: Cells were plated in 96-well plates such that they would be in log growth for the duration of the assay. The day after plating, PAs were added to the cells, and growth, if any, permitted to continue for six days in the presence of 1 mM AG and 0.5 μM SPD to insure that any growth inhibition was not the result of depletion of external polyamines in the media. At the end of the six days, cell growth was measured by MTS/PMS dye assay (Cell Titer 96 Aqueous Non-Radioactive Cell Proliferation Assay; Promega, Madison, Wis.).
The test system of the next test is MDA-MB-231. The test can be described thus: Growth inhibition assay, PA alone, MDA-MB-231. The conditions noted are these: PA alone (no DFMO), six days, repeat determinations, read-out: Cell Line IC50 MDA-MB-231. On the procedure: as §1
The test system of another test is SK-OV-3. The test can be described thus: Growth inhibition assay, PA alone, SK-OV-3. Conditions: Homo sapiens, SK-OV-3, 144 h, PA alone (no DFMO), six days; repeat determinations; read-out: Cell Line IC50 SK-OV-3. On the procedure:
as §1

Another test relates to A375. Briefly: Growth inhibition assay, PA alone, A375. Conditions: PA alone (no DFMO), six days, repeat determinations, read-out: Cell Line IC50 A375. As for the experimental part: as §1
Setting [2] is: Table 3, average over cell lines, read-out: AVG. EC50.
The mark [3] stands for this setting: Homo sapiens, MDA-MB-231, 144 h.
Setting [4] is: Table 1, average EC50 for 4 cell lines, read-out: Ave EC50 value.

The IC50 is the point on the concentration scale where inhibition reaches its midpoint. For orientation: EC50 means the concentration needed to bring the measured effect to its halfway point. Turning to `CC(C)CC(C)NCCCCC(N)C(=O)NCCCNCCCCNCCCN` (single isomer, unassigned) [VA21], in the test on PC-3, the IC50 is over 100 µM. The EC50 in test [1] (setting [2]) amounted to 1.3 µM.
`CCCCCCCCCCCCCCCCCC(=O)NCCCC[C@@H](N)C(=O)NCCCNCCCCNCCCN` [IB2]: the IC50 in the test with MDA-MB-231 (setting [3]) was over 3 µM; with SK-OV-3 it was over 3 µM; in the test on PC-3, over 3 µM; in the test with A375 (Homo sapiens, A-375, 144 h), over 3 µM. Besides, in test [1] (setting [2]), the EC50 worked out at 0.083 µM.
In the case of `CCCCCCCC(=O)NCCCC[C@@H](N)C(=O)NCCCNCCCCNCCCN` [IB7], the IC50 with MDA-MB-231 (setting [3]) was over 30 µM; in the test on SK-OV-3, over 30 µM; in the test on PC-3, over 30 µM; in the test on A375 (Homo sapiens, A-375, 144 h) it was over 30 µM. Also, the EC50 in test [1] (setting [2]) was determined as 11.2 µM.
For the molecule `CCCCCCC(=O)NCCCC[C@@H](N)C(=O)NCCCNCCCCNCCCN` [IB8], the IC50 in the test with MDA-MB-231 (setting [3]) is over 100 µM; in the test on SK-OV-3 it was over 100 µM; with PC-3, over 100 µM; with A375 (Homo sapiens, A-375, 144 h), over 100 µM. The EC50 in test [1] (setting [2]) stood at 3.55 µM.
For `CCCCCC(=O)NCCCC[C@@H](N)C(=O)NCCCNCCCCNCCCN` [IB9], the IC50 in the test with MDA-MB-231 (setting [3]) was over 100 µM; with SK-OV-3, over 100 µM; with PC-3 it was over 100 µM; in the test with A375 (Homo sapiens, A-375, 144 h) it was over 100 µM. Further, the EC50 in test [1] (setting [2]) came to 11.5 µM.
As for `CCCC(=O)NCCC[C@@H](N)C(=O)NCCCNCCCCNCCCN` [IB10], the IC50 in the test on MDA-MB-231 (setting [3]) was over 100 µM; with SK-OV-3, over 100 µM; in the test on PC-3, over 100 µM; with A375 (Homo sapiens, A-375, 144 h), over 100 µM. The EC50 in test [1] (setting [4]) is 12 µM; in test [1] (setting [2]), 11.7 µM.
Turning to `NCCCNCCCCNCCCNC(=O)[C@H](N)CCCCNC(=O)c1ccccc1` [IB24], the IC50 in the test on MDA-MB-231 (setting [3]) was over 30 µM; with SK-OV-3 it was over 30 µM; in the test with PC-3 it was over 30 µM; in the test with A375 (Homo sapiens, A-375, 144 h), over 30 µM. Besides, the EC50 in test [1] (setting [2]) was over 30 µM.
Turning to `NCCCNCCCCNCCCNC(=O)[C@H](N)CCCCNC(=O)c1ccco1` [IB25], the IC50 in the test with SK-OV-3 was over 30 µM; with PC-3, over 30 µM; in the test on A375 (Homo sapiens, A-375, 144 h) it was over 30 µM.
Regarding `NCCCNCCCCNCCCNC(=O)[C@H](N)CCCCNC(=O)c1ccc(-c2ccccc2)cc1` [IB26], the IC50 with MDA-MB-231 (setting [3]), with SK-OV-3 and in the test on PC-3 was over 100 µM throughout. In test [1] (setting [2]), the concentration giving a half-maximal response (EC50) stood at 0.955 µM.
On to `NCCCNCCCCNCCCNC(=O)[C@H](N)CCCCNC(=O)C(c1ccccc1)c1ccccc1` [IB29], for which the IC50 was over 100 µM in the test with MDA-MB-231 (setting [3]), over 70 µM in the test with SK-OV-3 and over 100 µM in the test with PC-3.
`NCCCNCCCCNCCCNC(=O)[C@H](N)CCCCNC(=O)C12CC3CC(CC(C3)C1)C2` [IB30]: the results for the half-inhibitory concentration (IC50) with MDA-MB-231 (setting [3]) and in the test with MDA-MB-231 were over 100 µM and 84.4 µM, respectively. The EC50 in test [1] (setting [2]) was determined as 1.24 µM.
Take `NCCCNCCCCNCCCNC(=O)[C@H](N)CCCNC(=O)C1CCCCC1` [IB32]: the IC50 was over 100 µM in the test with MDA-MB-231 (setting [3]); over 100 µM with SK-OV-3; over 100 µM with PC-3; over 100 µM with A375 (Homo sapiens, A-375, 144 h). For the same molecule, the EC50 in test [1] (setting [4]) turned out to be 3.6 µM.
For `CC(C)(C)CNCCCC[C@@H](N)C(=O)NCCCNCCCCNCCCN` [IVB24], the IC50 is over 100 µM in the test with MDA-MB-231 (setting [3]); over 100 µM in the test on SK-OV-3; over 100 µM in the test with A375 (Homo sapiens, A-375, 144 h); 84.4 µM with A375. Further, the EC50 in test [1] (setting [2]) turned out to be 3.14 µM.
`NCCCNCCCCNCCCNC(=O)[C@H](N)CCCCNCC1CC2C=CC1C2` (stereo partly drawn) [IVB25]: the IC50 with MDA-MB-231 (setting [3]) is over 100 µM; with MDA-MB-231, 61 µM; in the test with PC-3, over 100 µM. Moreover, in test [1] (setting [2]), the EC50 stood at 0.939 µM.
For the molecule `NCCCNCCCCNCCCNC(=O)[C@H](N)CCCCNCC1CCCCC1` [IVB27], the IC50 with MDA-MB-231 (setting [3]) and in the test with PC-3 was over 100 µM in each case. For the same molecule, in test [1] (setting [2]), the EC50 is 0.414 µM.
On to `NCCCNCCCCNCCCNC(=O)[C@H](N)CCCCNCc1ccc(-c2ccccc2)cc1` [IVB33], for which the IC50 in the test with MDA-MB-231 (setting [3]) is over 100 µM; in the test on SK-OV-3, 72.9 µM; with PC-3, over 100 µM.
